Assay [1] has as its system TGFbeta-induced collagen synthesis in L929 cells. The experiment in a line: TGFbeta-induced total collagen synthesis in L929 cells (sircol dye). Format: cell-based. Conditions: 50 micromole CP1 for 1 hour, then 5 ng/ml Mouse TGFβ2, 72 hours, FIG. 1. An excerpt: (§1) The present invention is about novel compounds which may offer alternative treatment options against IPF, which believed to develop as a consequences of smoking, pollution, allergens, toxins and seen in people who are older than 50 years old. The compounds mentioned in this application have been generated from “6,7-dimethoxy 2H-chromen-one (1), which was identified from local medicinal plants during our screening studies. The anti-fibrotic activity of this compound (“6,7-dimethoxy 2H-chromen-one (I) against TGF beta-induced collagen synthesis using 1.929 cells has been identified. For this, in 96-well plates, 1.929 cells were cultured in DMEM supplemented with % 10 serum, 10 μg/ml ascorbic acid and 20 μM prolin until they reached to confluency. Confluent cells were treated with 50 micromole of our compound (named as CP1) dissolved in DMSO for 1 hour, then 5 ng/ml of Mouse TGFβ2 was added and cells were further incubated for 72 hours at incubator supplied with 5% CO2 and 80% humidity. At the end of this incubation one of the plate was used to determine cell viability by using MTT test, FIG. 2. The second 96-well plate was used to determine the level of total collagen. […] Absorbance of developed color was determined at 600 nm. […] In addition to total collagen, we also determined the level of “secreted collagen” by using ELISA. […]

Assay [2] has as its system TGFbeta-induced secreted collagen synthesis in L929 cells. The experiment in a line: TGFbeta-induced secreted collagen in L929 cells (anti-collagen type I ELISA). The class given is cell-based. As to conditions: 50 micromole CP1, 5 ng/ml Mouse TGFβ2, 72 hours, culture supernatant, FIG. 3.
Source text: as §1
(In an ELISA, binding on a coated surface is turned into a signal by an enzyme label.)

Consider 1 compound from patent US10364230B2, “Chromene-2 derivatives and use thereof in the treatment of fibrosis” (ALTAY THERAPEUTICS, INC., priority 2014, dated 2019).

With `COc1cc2ccc(=O)oc2cc1OC` [CP1, 6,7-dimethoxy 2H-chromen-2-one], the “TGFβ-induced collagen level in the presence of CP1, compared to control cells” value in assay [1] (TGFβ alone induced % 20) is 10%. Further, in assay [1] (total collagen, sircol, absorbance 600 nm), the “inhibition of TGFβ-induced collagen synthesis” value was 50%. Besides, in assay [2], the “effect on TGFβ-induced secreted collagen level” value is reported as “significantly inhibits”.
